The text below walks through data of US8580825B2, “Oxadiazole inhibitors of leukotriene production” (Boehringer Ingelheim International GmbH, priority 2010, dated 2013).

The target in experiment [1] is T1, recombinant human FLAP protein (Homo sapiens, UniProt P20292).
T1 construct: made in house; host or cells: Sf9 insect cells (100,000xg membrane fraction used)
T1 sequence (P20292 1-161): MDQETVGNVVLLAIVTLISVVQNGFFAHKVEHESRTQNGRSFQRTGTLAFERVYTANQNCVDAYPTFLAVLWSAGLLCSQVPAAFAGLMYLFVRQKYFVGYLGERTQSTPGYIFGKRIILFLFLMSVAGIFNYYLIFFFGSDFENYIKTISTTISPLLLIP
In words: FLAP binding assay (Scintillation Proximity Assay, displacement of [125I]L-691,831). To be noted: read-out: FLAP SPA IC50. Here is the method: Compounds are assessed for the ability to bind to FLAP in a binding assay that measures compound-specific displacement of an iodinated (^125I) FLAP inhibitor via a Scintillation Proximity Assay format (adapted from S. Charleson et al., Mol. Pharmacol., 1992, 41, 873-879).
Cell pellets produced from sf9 insect cells expressing recombinant human FLAP protein are resuspended in buffer A [15 mM Tris-HCl (pH 7.5), 2 mM MgCl2, 0.3 mM EDTA, 1 mM PMSF]. The cells are lysed with a Dounce homogenizer and the material is centrifuged at 10,000×g for 10 minutes. The supernatant is then collected and centrifuged at 100,000×g for 60 minutes. To prepare membrane protein for an assay, an aliquot of the 100,000×g pellet is resuspended in 1 ml of buffer A, Dounce homogenized, and finally subjected to polytron mixing (30 seconds). Membrane protein (25 μl, 5 μg) is mixed with WGA SPA beads (Amersham) and stirred for 1 h. […] (final concentrations: beads, 200 μg/well; protein, 5 μg/well; [^125I] probe, 0.08 nM/well (17 nCi/well). The plates are shaken for 2 h before reading on a Microbeta plate reader. Non-specific binding is determined by the addition of 10 μM cold L-691,831 compound.
In general terms: In a scintillation proximity assay essentially only radioactivity close to the scintillant gives light.

Experiment [2] relates to synthesis of LTB4 in human whole blood. In words: human whole blood LTB4 production inhibition assay. To be noted: calcimycin stimulated, read-out: hWB LTB4 IC50. The experiment is classed as cell-based. Here is the method:
Compounds are additionally tested in a human whole blood assay to determine their ability to inhibit the synthesis of LTB4 in a cellular system. Compounds are combined with heparinized human whole blood and incubated for 15 minutes at 37° C. Calcimycin (20 μM final, prepared in phosphate-buffered saline, pH 7.4) is then added and the mixture is incubated for another 30 minutes at 37° C. The samples are centrifuged for 5 min at low speed (1500×g) and the plasma layer is removed. Plasma LTB4 concentrations are then measured using an antibody-based homogenous time-resolved fluorescence method (CisBio, Bedford, Mass.).

In general, IC50 refers to the point on the concentration scale where inhibition reaches its midpoint. In the case of `CCNc1cnc(-c2nc(C(C)(c3ccc(-c4cnc(N)nc4)nc3)C(C)C)no2)cn1` (stereo not shown) [Example 12, 5-[5-(2-{5-[5-(ethylamino)pyrazin-2-yl]-1,2,4-oxadiazol-3-yl}-3-methylbutan-2-yl)pyridin-2-yl]pyrimidin-2-amine], the results for the IC50 in experiment [1] and in experiment [2] were 3.6 nM and 55 nM, respectively.
For `CC(C)C(C)(c1ccc(-c2cnc(N)nc2)nc1)c1noc(-c2cnc(N3CCNCC3)cn2)n1` (stereo not shown) [Example 13, 5-[5-(3-methyl-2-{5-[5-(piperazin-1-yl)pyrazin-2-yl]-1,2,4-oxadiazol-3-yl}butan-2-yl)pyridin-2-yl]pyrimidin-2-amine], the results for the IC50 in experiment [1] and in experiment [2] were 10.9 nM and 490 nM, respectively.
Taken in the same sequence, the figures for `CC(C)C(C)(c1ccc(-c2cnc(N)nc2)nc1)c1noc(-c2cnn(CC(F)F)c2)n1` (stereo not shown) [Example 14, 5-[5-(2-{5-[1-(2,2-difluoroethyl)-1H-pyrazol-4-yl]-1,2,4-oxadiazol-3-yl}-3-methylbutan-2-yl)pyridin-2-yl]pyrimidin-2-amine] were 6.5 nM and 45 nM.
With `CNc1cnc(-c2nc(C(C)(c3ccc(-c4cnc(N)nc4)nc3)C(C)C)no2)cn1` (stereo not shown) [Example 15, 5-[5-(3-methyl-2-{5-[5-(methylamino)pyrazin-2-yl]-1,2,4-oxadiazol-3-yl}butan-2-yl)pyridin-2-yl]pyrimidin-2-amine], the half-inhibitory concentration (IC50) amounted to 2.3 nM in experiment [1] and 75 nM in experiment [2].
With `CC(C)Nc1cnc(-c2nc(C(C)(c3ccc(-c4cnc(N)nc4)nc3)C(C)C)no2)cn1` (stereo not shown) [Example 16, 5-[5-(3-methyl-2-{5-[5-(propan-2-ylamino)pyrazin-2-yl]-1,2,4-oxadiazol-3-yl}butan-2-yl)pyridin-2-yl]pyrimidin-2-amine], the figures for the concentration for half-maximal inhibition (IC50) in experiment [1] and in experiment [2] were 2.3 nM and 65 nM, respectively.
On to `CC(C)C(C)(c1ccc(-c2cnc(N)nc2)nc1)c1noc(-c2cnn(CCF)c2)n1` (stereo not shown) [Example 17, 5-[5-(2-{5-[1-(2-fluoroethyl)-1H-pyrazol-4-yl]-1,2,4-oxadiazol-3-yl}-3-methylbutan-2-yl)pyridin-2-yl]pyrimidin-2-amine], for which the IC50 in experiment [1] is 4.5 nM; in experiment [2] it was 53 nM.
Taken in the same sequence, the figures for `COCCN(C)c1cnc(-c2nc(C(C)(c3ccc(-c4cnc(N)nc4)nc3)C(C)C)no2)cn1` (stereo not shown) [Example 18, 5-{5-[2-(5-{5-[(2-methoxyethyl)(methyl)amino]pyrazin-2-yl}-1,2,4-oxadiazol-3-yl)-3-methylbutan-2-yl]pyridin-2-yl}pyrimidin-2-amine] were 2.7 nM and 83 nM.
As to `CC(C)C(C)(c1ccc(-c2cnc(N)nc2)nc1)c1noc(-c2cnc(NC[C@@H](C)O)cn2)n1` (stereo partly drawn) [Example 19, (2R)-1-{[5-(3-{2-[6-(2-aminopyrimidin-5-yl)pyridin-3-yl]-3-methylbutan-2-yl}-1,2,4-oxadiazol-5-yl)pyrazin-2-yl]amino}propan-2-ol], the results for the IC50 in experiment [1] and in experiment [2] were 4.8 nM and 140 nM, respectively.
For `CC(C)C(C)(c1ccc(-c2cnc(N)nc2)nc1)c1noc(-c2cnc(NC(C)(C)CO)cn2)n1` (stereo not shown) [Example 20, 2-{[5-(3-{2-[6-(2-aminopyrimidin-5-yl)pyridin-3-yl]-3-methylbutan-2-yl}-1,2,4-oxadiazol-5-yl)pyrazin-2-yl]amino}-2-methylpropan-1-ol], the results for the 50% inhibitory concentration (IC50) in experiment [1] and in experiment [2] were 4 nM and 140 nM, respectively.
For `CC(C)C(C)(c1ccc(-c2cnc(N)nc2)nc1)c1noc(-c2cn(C)cn2)n1` (stereo not shown) [Example 21, 5-(5-{3-methyl-2-[5-(1-methyl-1H-imidazol-4-yl)-1,2,4-oxadiazol-3-yl]butan-2-yl}pyridin-2-yl)pyrimidin-2-amine], the IC50 in experiment [1] was found to be 51.2 nM; in experiment [2] it was 570 nM.
Consider `CC(C)C(C)(c1ccc(-c2cnc(N)nc2)nc1)c1noc(-c2cnc(NC[C@H](C)O)cn2)n1` (stereo partly drawn) [Example 22, (2S)-1-{[5-(3-{2-[6-(2-aminopyrimidin-5-yl)pyridin-3-yl]-3-methylbutan-2-yl}-1,2,4-oxadiazol-5-yl)pyrazin-2-yl]amino}propan-2-ol], for which the figures for the IC50 in experiment [1] and in experiment [2] were 3.6 nM and 140 nM, respectively.
On to `COCCn1cc(-c2nc([C@@](C)(c3ccc(-c4cnc(N)nc4)nc3)C(C)C)no2)cn1` [Example 23, 5-{5-[(2R)-2-{5-[1-(2-methoxyethyl)-1H-pyrazol-4-yl]-1,2,4-oxadiazol-3-yl}-3-methylbutan-2-yl]pyridin-2-yl}pyrimidin-2-amine], for which the 50% inhibitory concentration (IC50) was 3.9 nM in experiment [1] and 39 nM in experiment [2].
Turning to `COCCn1cc(-c2nc([C@](C)(c3ccc(-c4cnc(N)nc4)nc3)C(C)C)no2)cn1` [Example 24, 5-{5-[(2S)-2-{5-[1-(2-methoxyethyl)-1H-pyrazol-4-yl]-1,2,4-oxadiazol-3-yl}-3-methylbutan-2-yl]pyridin-2-yl}pyrimidin-2-amine], the figures for the IC50 in experiment [1] and in experiment [2] were 170 nM and 990 nM, respectively.
With `CC(C)C(C)(c1ccc(-c2cnc(N)nc2)nc1)c1noc(NCCO)n1` (stereo not shown) [Example 25, 2-[(3-{2-[6-(2-aminopyrimidin-5-yl)pyridin-3-yl]-3-methylbutan-2-yl}-1,2,4-oxadiazol-5-yl)amino]ethanol], the results for the half-inhibitory concentration (IC50) in experiment [1] and in experiment [2] were 520 nM and greater than 5000 nM, respectively.
In the case of `CC(C)C(C)(c1ccc(-c2cnc(N)nc2)nc1)c1noc(N2CCNCC2)n1` (stereo not shown) [Example 26, 5-(5-{3-methyl-2-[5-(piperazin-1-yl)-1,2,4-oxadiazol-3-yl]butan-2-yl}pyridin-2-yl)pyrimidin-2-amine], the IC50 was determined as 400 nM in experiment [1] and 3900 nM in experiment [2].
Taken in the same sequence, the figures for `COCCNc1ccc(-c2nc(C(C)(c3ccc(-c4cnc(N)nc4)nc3)C(C)C)no2)nn1` (stereo not shown) [Example 27, 6-(3-{2-[6-(2-aminopyrimidin-5-yl)pyridin-3-yl]-3-methylbutan-2-yl}-1,2,4-oxadiazol-5-yl)-N-(2-methoxyethyl)pyridazin-3-amine] were 7.5 nM and 71 nM.
As to `CC(C)n1cc(-c2nc(C(C)(c3ccc(-c4cnc(N)nc4)nc3)C(C)C)no2)cn1` (stereo not shown) [Example 28, 5-[5-(3-methyl-2-{5-[1-(propan-2-yl)-1H-pyrazol-4-yl]-1,2,4-oxadiazol-3-yl}butan-2-yl)pyridin-2-yl]pyrimidin-2-amine], the half-maximal inhibitory concentration (IC50) was found to be 3.8 nM in experiment [1] and 72 nM in experiment [2].
Regarding `CCn1cc(-c2nc(C(C)(c3ccc(-c4cnc(N)nc4)nc3)C(C)C)no2)cn1` (stereo not shown) [Example 29, 5-(5-{2-[5-(1-ethyl-1H-pyrazol-4-yl)-1,2,4-oxadiazol-3-yl]-3-methylbutan-2-yl}pyridin-2-yl)pyrimidin-2-amine], the IC50 in experiment [1] came out at 4 nM; in experiment [2], 40 nM.
For the compound `COCCOCCn1cc(-c2nc(C(C)(c3ccc(-c4cnc(N)nc4)nc3)C(C)C)no2)cn1` (stereo not shown) [Example 30, 5-{5-[2-(5-{1-[2-(2-methoxyethoxy)ethyl]-1H-pyrazol-4-yl}-1,2,4-oxadiazol-3-yl)-3-methylbutan-2-yl]pyridin-2-yl}pyrimidin-2-amine], the half-maximal inhibitory concentration (IC50) came out at 12 nM in experiment [1] and 160 nM in experiment [2].
Regarding `CC(C)[C@](C)(c1ccc(-c2cnc(N)nc2)nc1)c1noc(-c2cnn(C3COC3)c2)n1` [Example 31, 5-{5-[(2R)-3-methyl-2-{5-[1-(oxetan-3-yl)-1H-pyrazol-4-yl]-1,2,4-oxadiazol-3-yl}butan-2-yl]pyridin-2-yl}pyrimidin-2-amine], the IC50 in experiment [1] worked out at 1.4 nM; in experiment [2], 12 nM.
For the compound `CC(C)C(C)(c1ccc(-c2cnc(N)nc2)nc1)c1noc(-c2ccc(NCC(C)(C)O)nn2)n1` (stereo not shown) [Example 32, 1-{[6-(3-{2-[6-(2-aminopyrimidin-5-yl)pyridin-3-yl]-3-methylbutan-2-yl}-1,2,4-oxadiazol-5-yl)pyridazin-3-yl]amino}-2-methylpropan-2-ol], the IC50 in experiment [1] was 17.3 nM; in experiment [2] it was 860 nM.
Turning to `CCOC(=O)C(C)(C)Cn1cc(-c2nc(C(C)(c3ccc(-c4cnc(N)nc4)nc3)C(C)C)no2)cn1` (stereo not shown) [Example 33, ethyl 3-[4-(3-{2-[6-(2-aminopyrimidin-5-yl)pyridin-3-yl]-3-methylbutan-2-yl}-1,2,4-oxadiazol-5-yl)-1H-pyrazol-1-yl]-2,2-dimethylpropanoate], the 50% inhibitory concentration (IC50) worked out at 5.2 nM in experiment [1] and 210 nM in experiment [2].
For `CC(C)[C@](C)(c1ccc(-c2cnc(N)nc2)nc1)c1noc(-c2cnn(C(C)(C)CO)c2)n1` [Example 34, 2-[4-(3-{(2R)-2-[6-(2-aminopyrimidin-5-yl)pyridin-3-yl]-3-methylbutan-2-yl}-1,2,4-oxadiazol-5-yl)-1H-pyrazol-1-yl]-2-methylpropan-1-ol], the half-maximal inhibitory concentration (IC50) is 6.6 nM in experiment [1] and 94 nM in experiment [2].
